In the supplement of paper PMC10883282 one finds relative viability data, which are given here for nine compounds.

± gives the standard deviation of the averaged measurements.

The test system of this assay is RD. Briefly: relative viability vs DMSO control (72 h) (fraction); higher = more viable cells. In short, it runs like this: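 Plates held 72 h at 37 °C and 5% CO2 contained sarcoma cell lines seeded in 384-well format to reach 80–90% confluence, plus 2.5 µl of serially diluted compound added after 24 h. Source plate concentrations ran from 10 mM to 0.0002 mM, with 0.1% DMSO as vehicle and a 5 µM positive control. Percent growth from ATPLite readings, averaged over up to triplicate wells, gave relative viability. Values were rescaled with 1 as full and 0 as none.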

As to `CC[C@H](Nc1ncnc2[nH]cnc12)c1nc2cccc(F)c2c(=O)n1-c1ccccc1` [Idelalisib], the relative viability by setting is: (0.00017 µM) 1.08 ± 0.039; (0.00051 µM) 1.11 ± 0.035; (0.00152 µM) 1.12 ± 0.06; (0.00457 µM) 1.13 ± 0.042; (0.01372 µM) 1.13 ± 0.036; (0.04115 µM) 1.13 ± 0.039. For the same compound, the relative viability worked out at 1.1 ± 0.076 (0.1235 µM); 1.12 ± 0.062 (0.3704 µM); 1.1 ± 0.066 (1.111 µM); 1.04 ± 0.06 (3.333 µM); 0.927 ± 0.029 (10 µM).
On to `Cc1cc(Nc2ncnc3ccc(NC4=NC(C)(C)CO4)cc23)ccc1Oc1ccn2ncnc2c1` [Tucatinib], for which the relative viability is 1.08 ± 0.071 (0.00017 µM); 1.09 ± 0.076 (0.00051 µM); 1.11 ± 0.04 (0.00152 µM); 1.08 ± 0.04 (0.00457 µM); 1.1 ± 0.026 (0.01372 µM); 1.1 ± 0.017 (0.04115 µM). Moreover, the relative viability runs as follows: (0.1235 µM) 1.07 ± 0.067; (0.3704 µM) 1.11 ± 0.073; (1.111 µM) 1.14 ± 0.081; (3.333 µM) 1.18 ± 0.063; (10 µM) 1.15 ± 0.061.
`Cn1cc(-c2cc3c(N4CCN(c5ncc([C@@](C)(N)c6ccc(F)cc6)cn5)CC4)ncnn3c2)cn1` [Avapritinib]: the relative viability by setting is: (0.00017 µM) 1.04 ± 0.055; (0.00051 µM) 1.03 ± 0.031; (0.00152 µM) 1.06 ± 0.02; (0.00457 µM) 1.05 ± 0.041; (0.01372 µM) 1.05 ± 0.033; (0.04115 µM) 1.03 ± 0.045. Besides, the relative viability is 1.04 ± 0.02 (0.1235 µM); 1.06 ± 0.043 (0.3704 µM); 1.03 ± 0.043 (1.111 µM); 0.939 ± 0.03 (3.333 µM); 0.813 ± 0.087 (10 µM).
For `CC(C)(C)c1cc(NC(=O)Nc2ccc(-c3cn4c(n3)sc3cc(OCCN5CCOCC5)ccc34)cc2)no1` [Quizartinib], the relative viability by setting is: (0.00017 µM) 1.08 ± 0.04; (0.00051 µM) 1.07 ± 0.036; (0.00152 µM) 1.08 ± 0.035; (0.00457 µM) 1.08 ± 0.06; (0.01372 µM) 1.07 ± 0.035; (0.04115 µM) 1.06 ± 0.025. Moreover, the relative viability was found to be 1.07 ± 0.05 (0.1235 µM); 1.05 ± 0.055 (0.3704 µM); 1.04 ± 0.025 (1.111 µM); 0.942 ± 0.1 (3.333 µM); 0.922 ± 0.065 (10 µM).
Take `O=C(Nc1cnn2ccc(N3CCC[C@@H]3c3cc(F)ccc3F)nc12)N1CC[C@H](O)C1` [Larotrectinib]: the relative viability is 1.07 ± 0.035 (0.00017 µM); 1.092 ± 0.0046 (0.00051 µM); 1.09 ± 0.059 (0.00152 µM); 1.1 ± 0.05 (0.00457 µM); 1.11 ± 0.042 (0.01372 µM); 1.1 ± 0.11 (0.04115 µM). Also, the relative viability is, setting by setting: (0.1235 µM) 1.13 ± 0.051; (0.3704 µM) 1.12 ± 0.073; (1.111 µM) 1.13 ± 0.037; (3.333 µM) 1.1 ± 0.068; (10 µM) 1.09 ± 0.12.
As for `Cc1nc(-c2cn3c(n2)-c2ccc(-c4cnn(C(C)(C)C(N)=O)c4)cc2OCC3)n(C(C)C)n1` [Taselisib], the relative viability reads like this: (0.00017 µM) 1.11 ± 0.018; (0.00051 µM) 1.08 ± 0.041; (0.00152 µM) 1.07 ± 0.037; (0.00457 µM) 1.06 ± 0.036; (0.01372 µM) 1.03 ± 0.028; (0.04115 µM) 0.888 ± 0.027. Also, the relative viability was determined as 0.687 ± 0.021 (0.1235 µM); 0.524 ± 0.017 (0.3704 µM); 0.444 ± 0.027 (1.111 µM); 0.426 ± 0.0056 (3.333 µM); 0.36 ± 0.026 (10 µM).
As for `Cc1nc(NC(=O)N2CCC[C@H]2C(N)=O)sc1-c1ccnc(C(C)(C)C(F)(F)F)c1` [Alpelisib], the relative viability turned out to be 1.04 ± 0.032 (0.00017 µM); 1.068 ± 0.0091 (0.00051 µM); 1.04 ± 0.056 (0.00152 µM); 1.07 ± 0.041 (0.00457 µM); 1.05 ± 0.052 (0.01372 µM); 1.03 ± 0.1 (0.04115 µM). In addition, the relative viability runs as follows: (0.1235 µM) 0.932 ± 0.045; (0.3704 µM) 0.851 ± 0.083; (1.111 µM) 0.7 ± 0.055; (3.333 µM) 0.594 ± 0.024; (10 µM) 0.557 ± 0.044.
For the compound `Cn1cnc2c(F)c(Nc3ccc(Br)cc3F)c(C(=O)NOCCO)cc21` [Binimetinib], the relative viability by setting is: (0.00017 µM) 1.01 ± 0.049; (0.00051 µM) 1 ± 0.04; (0.00152 µM) 0.978 ± 0.037; (0.00457 µM) 0.89 ± 0.054; (0.01372 µM) 0.798 ± 0.05; (0.04115 µM) 0.746 ± 0.028. For the same compound, the relative viability is, setting by setting: (0.1235 µM) 0.677 ± 0.016; (0.3704 µM) 0.627 ± 0.036; (1.111 µM) 0.588 ± 0.015; (3.333 µM) 0.534 ± 0.035; (10 µM) 0.507 ± 0.012.
With `CCc1cc2c(cc1N1CCC(N3CCOCC3)CC1)C(C)(C)c1[nH]c3cc(C#N)ccc3c1C2=O` [Alectinib], the relative viability by setting is: (0.00017 µM) 1.12 ± 0.056; (0.00051 µM) 1.09 ± 0.022; (0.00152 µM) 1.09 ± 0.051; (0.00457 µM) 1.1 ± 0.044; (0.01372 µM) 1.11 ± 0.049; (0.04115 µM) 1.11 ± 0.038. In addition, the relative viability by setting is: (0.1235 µM) 1.13 ± 0.045; (0.3704 µM) 1.11 ± 0.044; (1.111 µM) 1.09 ± 0.024; (3.333 µM) 1.054 ± 0.0068; (10 µM) 1.05 ± 0.037.
